# In PubChem BioAssay (NCI):
#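 Each compound was tested at five concentrations against cells in 96-well plates for 48 hours. Here, GI50 denotes the concentration required for 50% inhibition of growth. At the TGI there is no net growth.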
# Assays:
# Assay in all cases: growth of human tumour cells (NCI), 48 h
# [1] = test system: EKVX NSCLC
# [2] = test system: COLO 205 colon
# [3] = test system: A498 renal
# [4] = test system: BT-549 breast
# [5] = test system: M14 melanoma
# [6] = test system: HCC-2998 colon
# [7] = test system: MDA-MB-468 breast
# [8] = test system: MDA-MB-435
# [9] = test system: NCI-H226 lung
# [10] = test system: SF-295 CNS
# [11] = test system: HS 578T breast
# [12] = test system: ACHN renal
# [13] = test system: UACC-62 melanoma
# [14] = test system: KM12 colon
# [15] = test system: HOP-92 NSCLC
# [16] = test system: PC-3 prostate
# [17] = test system: OVCAR-4 ovarian
# [18] = test system: HL-60(TB) leukemia
# [19] = test system: SN12C renal
# [20] = test system: CAKI-1 renal
# [21] = test system: MCF7 breast
# [22] = test system: SK-MEL-28 melanoma
# [23] = test system: T-47D breast
# [24] = test system: SK-MEL-2 melanoma
# [25] = test system: MDA-MB-231 breast
# [26] = test system: NCI-H522 lung
# [27] = test system: HCT-15 colon
# [28] = test system: NCI/ADR-RES ovarian
# [29] = test system: SF-539 CNS
# [30] = test system: SW-620 colon
# [31] = test system: HOP-62 NSCLC
# [32] = test system: DU-145 prostate
# [33] = test system: MALME-3M melanoma
# [34] = test system: CCRF-CEM leukemia
# [35] = test system: NCI-H23 lung
# [36] = test system: OVCAR-3 ovarian
# [37] = test system: RPMI-8226 leukemia
# [38] = test system: SK-MEL-5 melanoma
# [39] = test system: OVCAR-5 ovarian
# [40] = test system: SNB-19 CNS
# [41] = test system: IGROV1 ovarian
# [42] = test system: SF-268 CNS
# [43] = test system: OVCAR-8 ovarian
# [44] = test system: UO-31 renal
# [45] = test system: RXF 393 renal
# [46] = test system: SNB-75 CNS
# [47] = test system: MOLT-4 leukemia
# [48] = test system: TK-10 renal
# [49] = test system: LOX IMVI melanoma
# [50] = test system: HCT-116 colon
# [51] = test system: UACC-257 melanoma
compound,measurement,setting,value
COc1ccc(-c2nc3cc(C)ccc3n2CC(=O)N=Nc2c(O)[nH]c3ccc(Cl)cc23)cc1,GI50,[1],1.91 µM
same,TGI,[1],5.61 µM
same,GI50,[2],3.15 µM
same,TGI,[2],10.2 µM
same,GI50,[3],3.63 µM
same,TGI,[3],> 100 µM
same,GI50,[4],1.97 µM
same,TGI,[4],4.66 µM
same,GI50,[5],1.9 µM
same,TGI,[5],4.02 µM
same,GI50,[6],3.16 µM
same,TGI,[6],> 100 µM
same,GI50,[7],2.29 µM
same,TGI,[7],5.05 µM
same,GI50,[8],2.29 µM
same,TGI,[8],6.14 µM
same,GI50,[9],1.9 µM
same,TGI,[9],5.18 µM
same,GI50,[10],2.49 µM
same,TGI,[10],8 µM
same,GI50,[11],1.79 µM
same,TGI,[11],6.03 µM
same,GI50,[12],2.1 µM
same,TGI,[12],5.67 µM
same,GI50,[13],1.58 µM
same,TGI,[13],3.4 µM
same,GI50,[14],3.01 µM
same,TGI,[14],10 µM
same,GI50,[15],1.48 µM
same,TGI,[15],4.63 µM
same,GI50,[16],2.38 µM
same,TGI,[16],8.6 µM
same,GI50,[17],2.35 µM
same,TGI,[17],6.5 µM
same,GI50,[18],4.36 µM
same,TGI,[18],> 100 µM
same,GI50,[19],2 µM
same,TGI,[19],6.18 µM
same,GI50,[20],2.35 µM
same,TGI,[20],24.6 µM
same,GI50,[21],2.69 µM
same,TGI,[21],16.2 µM
same,GI50,[22],1.82 µM
same,TGI,[22],3.39 µM
same,GI50,[23],2.73 µM
same,TGI,[23],> 100 µM
same,GI50,[24],3.25 µM
same,TGI,[24],18.6 µM
same,GI50,[25],1.96 µM
same,TGI,[25],4.8 µM
same,GI50,[26],3.99 µM
same,TGI,[26],22 µM
same,GI50,[27],3.64 µM
same,TGI,[27],> 100 µM
same,GI50,[28],2.48 µM
same,TGI,[28],7.16 µM
same,GI50,[29],1.76 µM
same,TGI,[29],3.41 µM
same,GI50,[30],2.35 µM
same,TGI,[30],6.59 µM
same,GI50,[31],2.13 µM
same,TGI,[31],5.97 µM
same,GI50,[32],3.18 µM
same,TGI,[32],16.2 µM
same,GI50,[33],2.12 µM
same,TGI,[33],4.38 µM
same,GI50,[34],3.07 µM
same,TGI,[34],60.2 µM
same,GI50,[35],2.83 µM
same,TGI,[35],11.3 µM
same,GI50,[36],1.88 µM
same,TGI,[36],3.8 µM
same,GI50,[37],3.01 µM
same,TGI,[37],> 100 µM
same,GI50,[38],2.07 µM
same,TGI,[38],4.9 µM
same,GI50,[39],2.63 µM
same,TGI,[39],10.1 µM
same,GI50,[40],2.73 µM
same,TGI,[40],9.29 µM
same,GI50,[41],3.22 µM
same,TGI,[41],24.5 µM
same,GI50,[42],3 µM
same,TGI,[42],> 100 µM
same,GI50,[43],1.82 µM
same,TGI,[43],3.77 µM
same,GI50,[44],3.81 µM
same,TGI,[44],> 100 µM
same,GI50,[45],1.49 µM
same,TGI,[45],3.9 µM
same,GI50,[46],0.532 µM
same,TGI,[46],4.09 µM
same,GI50,[47],2.43 µM
same,TGI,[47],> 100 µM
same,GI50,[48],3.43 µM
same,TGI,[48],> 100 µM
same,GI50,[49],1.78 µM
same,TGI,[49],3.93 µM
same,GI50,[50],1.83 µM
same,TGI,[50],4 µM
same,GI50,[51],2.1 µM
same,TGI,[51],4.99 µM
